Experimental data from ChEMBL document CHEMBL1201862, “PubChem BioAssay data set” (2004).
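Each compound was tested at five concentrations against cells in 96-well plates for 48 hours. GI50 marks 50% less growth.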 Active and inactive are the calls of the source. Rule as the data show it: active = GI50 up to about 1.1 µM and inactive = higher.

Columns and labels:
Assay in all cases: NCI-60 cell line screen, 48 h
[1] = system: 786-0
[2] = system: A498
[3] = system: A549
[4] = system: ACHN
[5] = system: BT-549
[6] = system: CAKI-1
[7] = system: CCRF-CEM
[8] = system: COLO 205
[9] = system: DU-145
[10] = system: EKVX
[11] = system: HCC 2998
[12] = system: HCT-116
[13] = system: HCT-15
[14] = system: HL-60
[15] = system: HOP-62
[16] = system: HOP-92
[17] = system: HT-29
[18] = system: Hs-578T
[19] = system: IGROV-1
[20] = system: K562
[21] = system: KM12
[22] = system: LOX IMVI
[23] = system: M14
[24] = system: MCF7
[25] = system: MDA-MB-231
[26] = system: MDA-MB-435
[27] = system: MDA-N
[28] = system: MOLT-4
[29] = system: Malme-3M
[30] = system: NCI-H226
[31] = system: NCI-H23
[32] = system: NCI-H460
[33] = system: NCI-H522
[34] = system: NCI/ADR-RES
[35] = system: OVCAR-3
[36] = system: OVCAR-4
[37] = system: OVCAR-5
[38] = system: OVCAR-8
[39] = system: PC-3
[40] = system: RPMI-8226
[41] = system: RXF 393
[42] = system: SF-268
[43] = system: SF-295
[44] = system: SF-539
[45] = system: SK-MEL-28
[46] = system: SK-MEL-2
[47] = system: SK-MEL-5
[48] = system: SK-OV-3
[49] = system: SN12C
[50] = system: SNB-19
[51] = system: SNB-75
[52] = system: SR
[53] = system: SW-620
[54] = system: T47D
[55] = system: TK-10
[56] = system: U-251
[57] = system: UACC-257
[58] = system: UACC-62
[59] = system: UO-31
[60] = system: DMS-114
[61] = system: DMS-273
[62] = system: KM-20L2
[63] = system: LXFL 529
[64] = system: M19-MEL
[65] = system: XF498

Measured: GI50

NS(=O)(=O)c1ccc(/N=N/c2c(O)c(C(=O)O)cc3ccccc23)cc1
inactive: [1] > 100 µM | [2] > 100 µM | [3] > 100 µM | [4] > 100 µM | [5] > 100 µM | [6] > 100 µM | [7] > 100 µM | [8] > 54.5 µM | [9] > 100 µM | [10] > 100 µM | [11] > 100 µM | [12] > 100 µM | [14] > 100 µM | [15] 99.1 µM | [16] > 100 µM | [17] > 100 µM | [18] > 100 µM | [19] > 100 µM | [20] > 94.4 µM | [21] > 75.7 µM | [22] 82.6 µM | [23] > 75.9 µM | [24] > 90.2 µM | [25] > 100 µM | [26] 45.4 µM | [27] 59.2 µM | [28] > 100 µM | [29] 26.1 µM | [30] > 100 µM | [31] > 100 µM | [32] > 100 µM | [33] > 76.7 µM | [34] > 100 µM | [35] > 100 µM | [36] > 100 µM | [37] > 100 µM | [38] > 100 µM | [39] > 100 µM | [40] > 100 µM | [41] > 100 µM | [42] > 100 µM | [43] > 100 µM | [44] > 100 µM | [45] > 93.5 µM | [46] > 100 µM | [47] 53.8 µM | [48] > 100 µM | [49] > 100 µM | [50] 43.1 µM | [51] > 100 µM | [52] 33.3 µM | [53] > 92.3 µM | [54] > 100 µM | [55] > 100 µM | [56] 49.3 µM | [57] > 100 µM | [58] 37.2 µM | [59] > 100 µM
> 100 µM: [13]

N#CCCC(C#N)(C#N)CCC#N
inactive: [1] > 100 µM | [3] > 100 µM | [4] > 100 µM | [7] > 10 µM | [8] > 100 µM | [60] > 100 µM | [61] > 100 µM | [10] > 100 µM | [11] > 100 µM | [12] > 100 µM | [14] > 100 µM | [15] > 100 µM | [17] > 100 µM | [19] > 100 µM | [20] > 100 µM | [62] > 100 µM | [21] > 100 µM | [22] > 100 µM | [63] > 100 µM | [23] > 100 µM | [64] > 100 µM | [28] > 100 µM | [29] > 100 µM | [30] > 100 µM | [31] > 100 µM | [32] > 100 µM | [33] > 100 µM | [35] > 100 µM | [38] > 100 µM | [40] > 100 µM | [42] > 100 µM | [43] > 100 µM | [44] > 100 µM | [45] > 100 µM | [47] > 100 µM | [48] > 100 µM | [49] > 100 µM | [50] > 100 µM | [52] > 100 µM | [53] > 100 µM | [55] > 100 µM | [56] > 100 µM | [57] > 100 µM | [58] > 100 µM | [59] > 100 µM | [65] > 100 µM
> 100 µM: [13]
